Each block holds one molecule with its values, some of them ahead of it.
Experiment: solvent given as SMILES

absorption maximum (in ClCCl): 312 nm
Compound: Cc1cc2cc(C)c3c4ccccc4[nH]c3c2s1

absorption maximum (in ClC(Cl)Cl): 703 nm
Compound: CN1C(=CC2=C([O-])C(=Cc3sc4ccccc4[n+]3C)C2=C(C#N)C#N)Sc2ccccc21

Compound: CC1(C)c2ccccc2N(c2cccc(S(=O)(=O)c3cccc(N4c5ccccc5C(C)(C)c5ccccc54)c3)c2)c2ccccc21
absorption maximum (in C1CCOC1): 281 nm | absorption maximum (in Cc1ccccc1): 301 nm | absorption maximum (in ClC(Cl)Cl): 287 nm

absorption maximum (in ClCCl): 454 nm
Compound: CCCCCCn1c(=O)c2c3[nH]c4ccccc4oc3c3c(=O)n(CCCCCC)c(=O)c3c2c1=O

Compound: CCN1c2ccccc2Sc2cc(/C=C(\C#N)c3ccccc3)ccc21
absorption maximum (in C1CCOC1): 411 nm | absorption maximum (in CC#N): 409 nm | absorption maximum (in CC(C)=O): 410 nm | absorption maximum (in CN(C)C=O): 414 nm | absorption maximum (in CS(C)=O): 418 nm | absorption maximum (in Cc1ccccc1): 412 nm | absorption maximum (in ClCCl): 413 nm

absorption maximum (in ClCCl): 489 nm
Compound: COCCOCCOCCOCC(COCCOCCOCCOC)Oc1cc(/C=C/c2ccc(C=C3C(=O)c4ccccc4C3=O)cc2)c(OC(COCCOCCOCCOC)COCCOCCOCCOC)cc1/C=C/c1ccc(C=C2C(=O)c3ccccc3C2=O)cc1

absorption maximum (in CC#N): 481 nm
Compound: c1cc2oc3cccc4oc5cccc6oc(c1)c2[c+](c34)c65

absorption maximum (in C1CCCCC1): 386 nm | absorption maximum (in CC#N): 409 nm | absorption maximum (in CCO): 429 nm | absorption maximum (in c1ccccc1): 395 nm
Compound: Nc1ccc2c(c1)-c1ccccc1C2=O

absorption maximum (in ClCCl): 310 nm
Compound: Clc1ccc(/C=C/c2ccncn2)cc1

absorption maximum (in C1CCOC1): 336 nm
Compound: Cc1cc(C2=C(c3c(C)sc(-c4ccc(-c5nc(-c6ccccc6)c(-c6ccccc6)[nH]5)cc4)c3C)C(F)(F)C(F)(F)C2(F)F)c(C)s1

Compound: F[B-]1(F)n2c(Nc3cccc4cccnc34)ccc2C(c2ccccc2)=C2C=CC(Cl)=[N+]21
absorption maximum (in C1CCCCC1): 560 nm | absorption maximum (in CC#N): 547 nm | absorption maximum (in Cc1ccccc1): 561 nm | absorption maximum (in ClC(Cl)Cl): 555 nm

absorption maximum (in CCO): 590 nm | absorption maximum (in O): 580 nm
Compound: CC/[NH+]=c1\cc2oc3cc(NCCC(=O)O)c4ccccc4c3nc-2cc1C

absorption maximum (in CC1CCCCC1): 387 nm | absorption maximum (in CC#N): 387 nm
Compound: C(=C\c1ccnc2ccccc12)/c1c2ccccc2cc2ccccc12

absorption maximum (in C1CCOC1): 365 nm
Compound: CCCCC1(CCCC)c2cc(C#Cc3ccc(/C=C(\C)c4ccccc4)cc3)ccc2-c2ccc(C#Cc3ccc(/C=C(\C)c4ccccc4)cc3)cc21

absorption maximum (in C1COCCO1): 401 nm
Compound: COC(=O)c1ccc(/C=C2\C=C(c3ccccc3)OC2=O)cc1

Compound: CC(C)[Si]1(C(C)C)c2cc(N(C)C)ccc2-c2ccc(C(F)(F)F)cc21
absorption maximum (in C1CCCCC1): 331 nm | absorption maximum (in CC#N): 337 nm | absorption maximum (in CCO): 335 nm | absorption maximum (in CCOCC): 334 nm | absorption maximum (in CS(C)=O): 344 nm | absorption maximum (in ClCCl): 338 nm | absorption maximum (in c1ccccc1): 338 nm

absorption maximum (in C1CCCCC1): 326 nm
Compound: Nc1ccc2[nH]ncc2c1

absorption maximum (in CCO): 439 nm
Compound: COc1ccc(C(=O)OCc2ccc3c4cccc5cccc(c6cccc2c63)c54)cc1

absorption maximum (in CC#N): 353 nm | absorption maximum (in ClCCl): 355 nm
Compound: Cc1cc(O)c(C(=O)/C=C/c2ccccc2Cl)c(=O)o1

absorption maximum (in C1CCOC1): 395 nm
Compound: CCCCOc1cc(C=C2c3ccccc3-c3ccccc32)c(OCCCC)cc1C=C1c2ccccc2C=Cc2ccccc21

absorption maximum (in ClC(Cl)Cl): 645 nm
Compound: CCCCCCCCCCOc1cc(OCCCCCCCCCC)cc(C2=C3C(C)=CC(/C=C/c4ccc(OC)cc4)=[N+]3[B-](F)(F)n3c(/C=C/c4ccc(OC)cc4)cc(C)c32)c1

absorption maximum (in ClC(Cl)Cl): 555 nm
Compound: F[B-]1(F)n2c(ccc2-c2ccccc2)C(c2ccc(I)cc2)=C2C=CC(c3ccccc3)=[N+]21

absorption maximum (in C1CCOC1): 516 nm
Compound: CC(C)[Si](C#CC1=CC2=c3cc(C#C[Si](C(C)C)(C(C)C)C(C)C)c4nc(C(F)(F)C(F)(F)C(F)(F)F)nc5c(C#C[Si](C(C)C)(C(C)C)C(C)C)cc(c3c54)C3=CC(C#C[Si](C(C)C)(C(C)C)C(C)C)=C4N=C(C(F)(F)C(F)(F)C(F)(F)F)N=C1C4C32)(C(C)C)C(C)C (stereo not drawn)

absorption maximum (in ClCCl): 331 nm
Compound: CCOC(=O)c1c(-c2c(Cl)c3cc(C)ccc3oc2=O)nn(-c2cccc(C)c2)c1C(=O)OCC

absorption maximum (in ClCCl): 385 nm
Compound: C(=C\c1ncc2ccccc2n1)/c1ccc(N2CCCCC2)cc1
